Measured values reported in patent publication US20110059869A1, “Method for Increasing Enzymatic Reactivity” (RIKEN, priority 2008, published 2011).

Test system: restriction enzyme PstI
Assay: PstI cleavage of DNA fragments I, II, III in a uniform liquid phase system
Assay type: biochemical
Details: 0.6 M trehalose present or not, three hours at 37° C.
Method: In the same manner as in 7 above, the three biotin-labeled DNA fractions I, II, and III (Seq. ID Nos. 4 to 6) were each cleaved at the restriction enzyme PstI site and the DNA fragments of various sizes that were released were detected. Two types of reaction solution (1× PstI buffer, 1× BSA, restriction enzyme 40 units) were prepared: a trehalose (+) system with a final D(+)-trehalose concentration of 0.6 M, and a trehalose (−) system to which no trehalose was added. Each of the reaction solutions was admixed and reacted for three hours at 37° C. Cleavage was conducted with restriction enzyme. The DNA fragments of various sizes that were released were reacted with proteinase K, treated with phenol chloroform, and precipitated from ethanol. The precipitate of DNA fragments obtained was dissolved in 1× TE (pH 7.5) and analyzed with Bioanalyzer DNA 1000 assay (Agilent Technologies) (FIGS. 15 and 16).

OC[C@H]1O[C@H](O[C@H]2O[C@H](CO)[C@@H](O)[C@H](O)[C@H]2O)[C@H](O)[C@@H](O)[C@@H]1O [trehalose, D(+)-trehalose]
quantity of the released DNA fragments recovered: no change
